Experimental data as given in patent US5223526A, “Pyrazole carboxanilide fungicides and use” (Monsanto Company, priority 1992, dated 1993).

Legend:
succinate dehydrogenase = biological target: T1, succinate dehydrogenase (Botrytis cinerea, UniProt A0A384J5E4+A0A384J8V8+A0A384JHJ5); assay: Enzyme inhibition: succinate dehydrogenase activity in Botrytis cinerea mitochondria (DCPIP reduction); type: biochemical; settings: concentration required to inhibit the rate of DCPIP reduction by 50%; Botrytis cinerea isolate Nick mitochondria; read-out: I50 (μM conc.)
T1 construct: succinate-DCPIP reductase assay with KCN
Procedure, shortened: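 Crude mitochondria from Botrytis cinerea isolate Nick mycelia, prepared by bead-beating and differential centrifugation, started reactions. SDH activity followed as DCPIP reduction at 600 nm in 50 mM K-phosphate pH 7.2 with 1 mM KCN, 45 μM DCPIP, 17 mM succinate, 1% acetone. I50 from semilog inhibition plots, corrected for succinate-free rates.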

Botrytis cinerea [1] = assay: Eggplant grey mold; type: in vivo; set-up: scale not given here; settings: inoculated 24 h later, rated after 3-4 days; for Disease Control Rating at 20 ppm: eggplant sprayed with 20 ppm; for Disease Control Rating at 100 ppm: eggplant sprayed with 100 ppm; for Disease Control Rating at 500 ppm: eggplant sprayed with 500 ppm
Procedure, shortened: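 Protective test: compound formulations (2:3 acetone:water, 0.5% Tween 20; 500, 100 or 20 ppm) sprayed on 14-18-day-old plants, with spore inoculum (4×10^6 spore/mL) applied a day later. Disease control rated on Botrytis lesions after 3-4 days at 23 °C and 100% humidity.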

Botrytis cinerea [2] = assay: Vine grey mold (grape berries); type: in vivo; settings: average of six berries, 7-10 days; for pest or weed control at 50 ppm: grape berries treated with 50 ppm, read-out: % DISEASE CONTROL 50 ppm; for pest or weed control at 200 ppm: grape berries treated with 200 ppm, read-out: % DISEASE CONTROL 200 ppm
Procedure, shortened: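 Preventive berry test: compound at 50 or 200 ppm (acetone/water, 0.05% Tween 20) applied one day before inoculation with 10^6 spores/mL Botrytis conidia. After 7-10 days at 20 °C under 12 h light, infected surface area rated; disease control expressed as percent reduction from control mean; repeated-test values averaged.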

Rhizoctonia solani = assay: Rice sheath blight; type: in vivo; set-up: scale not given here; settings: inoculated two days later, rated after 7 days, average of five plants; for Disease Control Rating at 0.5 mg/mL: foliage and soil sprayed with 0.5 mg/mL; for Disease Control Rating at 0.02 mg/mL: foliage and soil sprayed with 0.02 mg/mL; for Disease Control Rating at 0.1 mg/mL: foliage and soil sprayed with 0.1 mg/mL
Procedure, shortened: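 Rice plants 11–15 days old had foliage and soil sprayed with 0.5, 0.1 or 0.02 mg/mL Compound A in water/acetone/Tween 20, then kept in flooded trays. Two days later, rice-grain Rhizoctonia solani inoculum went to plant bases; disease control scored versus untreated after 7 days at 25 °C, high humidity, averaging five plants.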

T1 sequence (A0A384J5E4 1-300): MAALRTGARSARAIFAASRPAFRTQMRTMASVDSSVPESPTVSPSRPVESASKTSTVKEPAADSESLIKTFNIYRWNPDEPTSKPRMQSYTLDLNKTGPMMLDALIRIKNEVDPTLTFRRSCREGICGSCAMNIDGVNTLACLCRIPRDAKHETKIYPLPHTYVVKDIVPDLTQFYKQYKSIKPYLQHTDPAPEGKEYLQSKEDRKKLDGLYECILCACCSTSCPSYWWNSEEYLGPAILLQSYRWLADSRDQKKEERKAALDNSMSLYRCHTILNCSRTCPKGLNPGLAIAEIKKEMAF
T1 sequence (A0A384J8V8 1-189): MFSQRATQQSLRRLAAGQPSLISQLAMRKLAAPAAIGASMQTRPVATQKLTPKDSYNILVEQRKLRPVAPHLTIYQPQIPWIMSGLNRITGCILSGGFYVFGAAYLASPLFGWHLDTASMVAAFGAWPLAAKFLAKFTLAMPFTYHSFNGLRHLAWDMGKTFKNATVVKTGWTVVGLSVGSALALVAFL
T1 sequence (A0A384JHJ5 1-192): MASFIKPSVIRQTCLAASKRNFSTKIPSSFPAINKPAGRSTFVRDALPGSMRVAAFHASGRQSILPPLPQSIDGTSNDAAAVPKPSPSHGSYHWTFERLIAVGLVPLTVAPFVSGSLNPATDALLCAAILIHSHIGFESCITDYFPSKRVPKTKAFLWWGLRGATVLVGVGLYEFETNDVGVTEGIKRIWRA
T1 sequence (A0A384K456 1-647 partner): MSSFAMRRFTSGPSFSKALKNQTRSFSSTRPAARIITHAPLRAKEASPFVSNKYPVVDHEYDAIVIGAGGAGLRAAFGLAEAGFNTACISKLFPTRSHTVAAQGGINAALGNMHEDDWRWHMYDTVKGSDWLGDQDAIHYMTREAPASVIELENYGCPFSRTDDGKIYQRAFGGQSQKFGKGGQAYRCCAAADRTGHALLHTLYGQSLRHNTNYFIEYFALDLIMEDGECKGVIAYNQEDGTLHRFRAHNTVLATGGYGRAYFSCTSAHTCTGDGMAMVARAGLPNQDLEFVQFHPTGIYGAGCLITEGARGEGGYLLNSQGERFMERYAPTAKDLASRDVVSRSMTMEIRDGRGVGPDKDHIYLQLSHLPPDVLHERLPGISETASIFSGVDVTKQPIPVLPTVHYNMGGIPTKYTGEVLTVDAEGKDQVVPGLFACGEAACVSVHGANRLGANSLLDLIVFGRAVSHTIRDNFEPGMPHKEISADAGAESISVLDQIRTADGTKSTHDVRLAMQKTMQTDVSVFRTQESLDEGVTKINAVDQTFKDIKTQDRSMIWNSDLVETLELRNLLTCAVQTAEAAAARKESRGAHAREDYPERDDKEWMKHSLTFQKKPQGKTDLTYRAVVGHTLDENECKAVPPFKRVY

Structure (SMILES) | IC50 (succinate dehydrogenase) [µM] | Disease Control Rating at 20 ppm (Botrytis cinerea [1]) | Disease Control Rating at 100 ppm (Botrytis cinerea [1]) | Disease Control Rating at 500 ppm (Botrytis cinerea [1]) | pest or weed control at 50 ppm (Botrytis cinerea [2]) [%] | pest or weed control at 200 ppm (Botrytis cinerea [2]) [%] | Disease Control Rating at 0.5 mg/mL (Rhizoctonia solani) | Disease Control Rating at 0.02 mg/mL (Rhizoctonia solani) | Disease Control Rating at 0.1 mg/mL (Rhizoctonia solani)
Cc1ccc(C2CCCCC2)c(NC(=O)c2cn(C)nc2C(F)F)c1 [Example 21, 1H-pyrazole-4-carboxamide, N-(2-cyclohexyl-5-methylphenyl)-3-(difluoromethyl)-1-methyl-] | 0.019 | 1 | 2 | 2 | 40 | 34 | 1 |  | 
Cn1nc(C(F)F)c(C(=O)Nc2ccccc2C2CCCCCC2)c1Cl [Example 114, 1H-pyrazole-4-carboxamide, 5-chloro-N-(2-cycloheptylphenyl)-3-(difluoromethyl)-1-methyl-] | 0.0036 | 0 | 1 | 2 | 78 | 90 | 3 | 3 | 3
Cn1cc(C(=O)Nc2ccccc2C2CCCCCCC2)c(C(F)(F)F)n1 [Example 25, 1H-pyrazole-4-carboxamide, N-(2-cyclooctylphenyl)-1-methyl-3-(trifluoromethyl)-] | 0.0011 | 1 | 2 | 2 | 66 | 78 | 1 |  | 
Cn1cc(C(=O)Nc2ccccc2OCC2CCC2)c(C(F)F)n1 [Example 42, 1H-pyrazole-4-carboxamide, N-[2-(cyclobutylmethoxy)phenyl]-3-(difluoromethyl)-1-methyl-] | 0.2 |  |  | 0 | 0 | 25 | 3 | 2 | 3
Cn1nc(C(F)(F)F)c(C(=O)Nc2ccccc2C2CCCCCC2)c1Cl [Example 89, 1H-pyrazole-4-carboxamide, 5-chloro-N-(2-cycloheptylphenyl)-1-methyl-3-(trifluoromethyl)-] | 0.021 |  |  | 0 | 24 | 13 | 0 |  | 
Cc1ccc(OC2CCCCC2)c(NC(=O)c2cn(C)nc2C(F)(F)F)c1 [Example 97, 1H-pyrazole-4-carboxamide, N-[2-(cyclohexyloxy)-5-methylphenyl]-1-methyl-3-(trifluoromethyl)-] | 0.59 | 0 | 0 | 1 | 0 | 1 | 0 |  | 
Cn1cc(C(=O)Nc2ccccc2C2CCCCC2)c(I)n1 [Example 56, 1H-pyrazole-4-carboxamide, N-[2-(cyclohexyl)phenyl]-3-iodo-1-methyl-] | 0.013 |  |  | 0 | 46 | 70 | 0 |  | 
Cn1cc(C(=O)Nc2ccccc2C2CCC(C(C)(C)C)CC2)c(C(F)(F)F)n1 (stereo not drawn) [Example 135, 1H-pyrazole-4-carboxamide, N-[2-[4-(1,1-dimethylethyl)cyclohexyl]-phenyl]-1-methyl-3-(trifluoromethyl)-] | 0.01 | 1 | 1 | 2 | 52 | 66 | 3 |  | 
Cn1cc(C(=O)Nc2ccccc2OC2(C)CCCC2)c(C(F)(F)F)n1 [Example 36, 1H-pyrazole-4-carboxamide, 1-methyl-N-[2-(1-methylcyclopentyloxy)phenyl]-3-(trifluoromethyl)-] | 0.021 |  |  | 0 | 14 | 38 | 0 |  | 
Cn1cc(C(=O)Nc2ccccc2C2CC(C)(C)CC(C)(C)C2)c(C(F)F)n1 [Example 140, 1H-pyrazole-4-carboxamide, 3-(difluoromethyl)-1-methyl-N-[2-(3,3,5,5-tetramethylcyclohexyl)-phenyl]-] | 0.039 | 0 | 1 | 1 | 16 | 12 | 3 | 0 | 2
C[C@@H]1CCC[C@H](c2ccccc2NC(=O)c2cn(C)nc2C(F)(F)F)C1 (relative stereo) [Example 79, 1H-pyrazole-4-carboxamide, 1-methyl-N-[2-(3-methylcyclohexyl)phenyl]-3-(trifluoromethyl)-, cis-] | 0.011 | 0 | 1 | 2 | 69 | 97 | 3 | 3 | 3
CCC1CC=C(c2ccccc2NC(=O)c2cn(C)nc2C(F)(F)F)CC1 (stereo not drawn) [Example 126, 1H-pyrazole-4-carboxamide, N-[2-(4-ethyl-1-cyclohexen-1-yl)phenyl]-1-methyl-3-(trifluoromethyl)-] | 0.0066 | 0 | 1 | 1 | 59 | 97 | 3 |  | 
Cn1cc(C(=O)Nc2ccccc2C2=CC(C)(C)CC(C)(C)C2)c(C(F)(F)F)n1 [Example 123, 1H-pyrazole-4-carboxamide, 1-methyl-N-[2-(3,3,5,5-tetramethyl-1-cyclohexen-1-yl)phenyl]-3-(trifluoromethyl)-] | 0.023 | 0 | 0 | 0 | 14 | 36 | 0 |  | 
Cn1cc(C(=O)Nc2ccccc2CC2CCCCC2)c(C(F)F)n1 [Example 129, 1H-pyrazole-4-carboxamide, N-[2-(cyclohexylmethyl)phenyl]-3-(difluoromethyl)-1-methyl-] | 0.11 | 0 | 0 | 0 | 7 | 0 | 3 | 3 | 3
Cn1cc(C(=O)Nc2ccccc2C2(C)CCCC2)c(C(F)(F)F)n1 [Example 67, 1H-pyrazole-4-carboxamide, 1-methyl-N-[2-(1-methylcyclopentyl)phenyl]-3-(trifluoromethyl)-] | 0.056 | 0 | 1 | 2 | 31 | 0 | 2 |  | 
Cc1ccc(NC(=O)c2cn(C)nc2C(F)(F)F)c(C2CCCCC2)c1 [Example 29, 1H-pyrazole-4-carboxamide, N-(2-cyclohexyl-4-methylphenyl)-1-methyl-3-(trifluoromethyl)-] | 0.036 |  |  | 0 | 0 | 54 | 0 |  | 
Cn1nc(C(F)(F)F)c(C(=O)Nc2ccccc2[C@@H]2C[C@H]3CC[C@@H]2C3)c1Cl (relative stereo) [Example 88, 1H-pyrazole-4-carboxamide, N-(2-bicyclo[2.2.1]hept-2-ylphenyl)-5-chloro-1-methyl-3-(trifluoromethyl)-, exo-] | 0.035 |  |  | 0 | 0 | 0 | 0 |  | 
Cc1nn(C)c(C)c1C(=O)Nc1ccccc1C1CCCCCC1 [Example 66, 1H-pyrazole-4-carboxamide, N-(2-cycloheptylphenyl)-1,3,5-trimethyl-] | 0.048 | 0 | 0 | 2 | 32 | 35 | 3 | 3 | 3
